Among the data in patent publication US9440960B2, “Substituted oxetanes and their use as inhibitors of cathepsin C” (Boehringer Ingelheim International GmbH, priority 2014, dated 2016) are IC50 values, retold here.

As a reminder, the IC50 is the concentration that gives 50% inhibition.

T1 sequence (P53634 231-394 limits assumed): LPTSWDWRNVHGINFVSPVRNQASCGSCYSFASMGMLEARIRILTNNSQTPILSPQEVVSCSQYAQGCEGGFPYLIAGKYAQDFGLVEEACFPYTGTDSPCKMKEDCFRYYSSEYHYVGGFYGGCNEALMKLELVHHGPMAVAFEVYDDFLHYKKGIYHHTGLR
T1 sequence (P53634 395-463 limits assumed): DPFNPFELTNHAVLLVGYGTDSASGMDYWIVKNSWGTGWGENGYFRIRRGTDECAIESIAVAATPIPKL
T1 sequence (P53634 25-143 limits assumed): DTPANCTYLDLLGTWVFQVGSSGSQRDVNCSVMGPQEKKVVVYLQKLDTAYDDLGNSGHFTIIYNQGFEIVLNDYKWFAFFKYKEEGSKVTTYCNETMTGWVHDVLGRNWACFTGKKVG

This assay concerns the target T1, recombinant human DPPI (Cathepsin C) (Homo sapiens, UniProt P53634).
T1 construct: purchased Prozymex
Briefly: Inhibition of Human DPPI (Cathepsin C). Type of assay: biochemical. The note with it: substrate Gly-Arg-AMC 50 μM, MES buffer pH 6.0, 30 min at room temperature, fluorescence readout. An excerpt:
Inhibition of Human DPPI (Cathepsin C)
Materials: Microtiterplates (Optiplate-384 F) were purchased from PerkinElmer (Prod.No. 10 6007270). The substrate Gly-Arg-AMC was from Biotrend (Prod.-No. 808756 Custom peptide).
Bovine serum albumin (BSA; Prod.No. A3059) and Dithiothreitol (DTT; Prod.No D0632) were from Sigma. TagZyme buffer was from Riedel-de-Haen (Prod.-No. 04269), NaCl was from Merck (Prod.-No. 1.06404.1000) and morpholinoethane sulfonic acid (MES), was from Serva (Prod.-No.
29834). The DPP1 inhibitor Gly-Phe-DMK was purchased from MP Biomedicals 15 (Prod.-No. 03DK00625). The recombinant human DPPI was purchased from Prozymex. All other materials were of highest grade commercially available.
The following buffers were used: MES buffer: 25 mM MES, 50 mM NaCl, 5 mM DTT, adjusted to pH 6.0, containing 0.1% BSA; TAGZyme Buffer: 20 mM NaH2PO4, 150 mM NaCl adjusted to pH […]
Assay conditions: The recombinant human DPPI was diluted in TAGZyme buffer to 1 U/ml (38.1 μg/ml, respectively), and then activated by mixing in a 1:2 ratio with a Cysteamine aqueous solution (2 mM) and incubating for 5 min at room temperature.
Five uL test compound (final concentration 0.1 nM to 100 μM) in aqua bidest 5 (containing 4% DMSO, final DMSO concentration 1%) were mixed with 10 μL of DPPI in MES buffer (final concentration 0.0125 ng/μL) and incubated for 10 min. Then, 5 μL of substrate in MES buffer (final concentration 50 μM) were added. The microtiter plates were then incubated at room temperature for 30 min. Then, the reaction was stopped by adding 10 μL of Gly-Phe-DMK in 10 MES-buffer (final concentration 1 μM). The fluorescence in the wells was determined using a Molecular Devices SpectraMax M5 Fluorescence Reader (Ex 360 nm, Em 460 nm) or an Envision Fluorescence Reader (Ex 355 nm, Em 460 nm).
Each assay microtiter plate contained wells with vehicle controls (1% DMSO in bidest+0.075% 15 BSA) as reference for non-inhibited enzyme activity (100% Ctl; high values) and wells with inhibitor (Gly-Phe-DMK, in bidest+1% DMSO+0.075% BSA, final concentration 1 μM) as controls for background fluorescence (0% Ctl; low values).
The analysis of the data was performed by calculating the percentage of fluorescence in the presence of test compound in comparison to the fluorescence of the vehicle control after 20 subtracting the background fluorescence using the following formula: (RFU(sample)−RFU(background))*100/(RFU(control)−RFU(background)) […]
Data from these calculations were used to generate IC50 values for inhibition of DPPI, respectively.
On to `N#C[C@H](Cc1ccc(C2CCN(C3COC3)C2)cc1F)NC(=O)[C@H]1N[C@@H]2CC[C@H]1C2` (stereo partly drawn) [Example 12], for which the IC50 came to 29.4 nM.

Turning to `N#C[C@H](Cc1ccc(C2CCCN(C3COC3)C2)cc1F)NC(=O)[C@H]1N[C@@H]2CC[C@H]1C2` (stereo partly drawn) [Example 11], the IC50 came out at 52.7 nM.

As to `N#C[C@H](Cc1ccc(C2CCN(C3COC3)CC2)cc1F)NC(=O)[C@H]1N[C@@H]2CC[C@H]1C2` [Example 10, (1S,2S,4R)—N-[(1S)-1-cyano-2-[2-fluoro-4-[1-(oxetan-3-yl)-4-piperidyl]phenyl]ethyl]-3-azabicyclo[2.2.1]heptane-2-carboxamide], the IC50 came to 60.1 nM.

Turning to `N#C[C@H](Cc1ccc(N2CC3(C2)CN(C2COC2)C3)cc1F)NC(=O)[C@H]1N[C@@H]2CC[C@H]1C2` [Example 3], the half-maximal inhibitory concentration (IC50) stood at 21.6 nM.

In the case of `N#C[C@H](Cc1ccc(N2CCC3C2CCN3C2COC2)cc1F)NC(=O)[C@H]1N[C@@H]2CC[C@H]1C2` (stereo partly drawn) [Example 8], the IC50 amounted to 35.5 nM.

For the compound `N#C[C@H](Cc1ccc(N2CCN(C3COC3)CC2)cc1F)NC(=O)C12CCC(CC1)CN2` [Example 15, N-[(1S)-1-cyano-2-[2-fluoro-4-[4-(oxetan-3-yl)piperazin-1-yl]phenyl]ethyl]-2-azabicyclo[2.2.2]octane-1-carboxamide], the IC50 worked out at 66.5 nM.

For the compound `N#C[C@H](Cc1ccc(C2CC3CN(C4COC4)CC3C2)cc1F)NC(=O)[C@H]1N[C@@H]2CC[C@H]1C2` (stereo partly drawn) [Example 13], the IC50 turned out to be 79.7 nM.

On to `N#C[C@H](Cc1ccc(N2CC3CN(C4COC4)CC3C2)cc1F)NC(=O)[C@H]1N[C@@H]2CC[C@H]1C2` (stereo partly drawn) [Example 5, (1S,2S,4R)—N-[(1S)-1-cyano-2-[2-fluoro-4-[5-(oxetan-3-yl)-1,3,3a,4,6,6a-hexahydropyrrolo[3,4-c]pyrrol-2-yl]phenyl]ethyl]-3-azabicyclo[2.2.1]heptane-2-carboxamide], for which the IC50 came out at 16.5 nM.

Take `N#C[C@H](Cc1ccc(N2CCN(C3COC3)CC2)cc1F)NC(=O)[C@H]1N[C@@H]2CC[C@H]1C2` [Example 1, (1S,2S,4R)—N-[(1S)-1-cyano-2-[2-fluoro-4-[4-(oxetan-3-yl)piperazin-1-yl]phenyl]ethyl]-3-azabicyclo[2.2.1]heptane-2-carboxamide]: the IC50 came to 11.7 nM.

On to `N#C[C@H](Cc1ccc(N2C3CCC2CN(C2COC2)C3)cc1F)NC(=O)[C@H]1N[C@@H]2CC[C@H]1C2` [Example 2], for which the IC50 worked out at 14.4 nM.

As to `N#C[C@H](Cc1ccc(C2=CCN(C3COC3)CC2)cc1F)NC(=O)[C@H]1N[C@@H]2CC[C@H]1C2` [Example 4, (1S,2S,4R)—N-[(1S)-1-cyano-2-[2-fluoro-4-[1-(oxetan-3-yl)-3,6-dihydro-2H-pyridin-4-yl]phenyl]ethyl]-3-azabicyclo[2.2.1]heptane-2-carboxamide], the IC50 was 5.6 nM.

For the compound `N#C[C@H](Cc1ccc(C2CC3CN(C4COC4)CC3C2)cc1F)NC(=O)[C@H]1N[C@@H]2CC[C@H]1C2` (stereo partly drawn) [Example 14], the IC50 worked out at 29.3 nM.

Regarding `N#C[C@H](Cc1ccc(N2CCC3C2CCN3C2COC2)cc1F)NC(=O)[C@H]1N[C@@H]2CC[C@H]1C2` (stereo partly drawn) [Example 9], the IC50 amounted to 17.6 nM.

Consider `N#C[C@H](Cc1ccc(N2CC3CCN(C4COC4)C3C2)cc1F)NC(=O)[C@H]1N[C@@H]2CC[C@H]1C2` (stereo partly drawn) [Example 6], for which the IC50 amounted to 13.5 nM.

Regarding `N#C[C@H](Cc1ccc(N2CCC3CN(C4COC4)CC32)cc1F)NC(=O)[C@H]1N[C@@H]2CC[C@H]1C2` (stereo partly drawn) [Example 7], the IC50 came out at 9.9 nM.
